One experiment relates to Vero. Put plainly: Vero E6 cell cytotoxicity, dose response, cytotoxicity control (AID 540298). The format is functional. As to conditions: Chlorocebus sabaeus.
Experiment [1] addresses RNA-editing ligase 1, mitochondrial (Trypanosoma brucei brucei, UniProt P86926). In words: inhibition of trypanosome RNA editing ligase – biochemical, fluorescence, Trypanosoma brucei, dose response (AID 1117295). Format: functional.
Experiment [2] deals with MDCK. In words: antiviral activity against H1N1 influenza, dose response, cell-based, strain KY180 (AID 540254). The format is functional. As to conditions: Canis lupus familiaris.
A further experiment has as its target Nonstructural protein 1 (Influenza A virus, UniProt Q194T2). The format is functional, Influenza A virus (A/California/07/2009(H1N1)).
Experiment [3] concerns MDCK. Put plainly: MDCK cell cytotoxicity, dose response, cytotoxicity control (AID 540296). As to conditions: Canis lupus familiaris. Format: functional.
The target of experiment [4] is Beta-adrenergic receptor kinase 1 (Homo sapiens, UniProt P25098). In words: aptamer displacement from bead-bound GRK2 – biochemical, cherry pick 1, bead flow cytometry, dose response (AID 504500).
The target in experiment [5] is T1, Small ubiquitin-related modifier 1 (Homo sapiens, UniProt P63165). In words: SUMO1 protein interaction blockers, potency – biochemical, fluorescence polarization, uHTS hits, dose response (AID 624382). Format: functional. As to conditions: read-out: IC50_Mean.
Experiment [6] concerns the target Induced myeloid leukemia cell differentiation protein Mcl-1 (Homo sapiens, UniProt Q07820). Format: functional.
Experiment [7] deals with T1, Small ubiquitin-related modifier 1. Put plainly: SUMO1 protein-protein binding blockers, potency – biochemical, FRET, dose response (AID 624383). As to conditions: read-out: IC50_Mean. The format is functional.
In experiment [8] the target is DNA dC->dU-editing enzyme APOBEC-3G (Homo sapiens, UniProt Q9HC16). In words: Dose Response confirmation of small molecule APOBEC3G DNA Deaminase Inhibitors via a fluorescence-based single-stranded DNA deaminase assay. [Related pubchem assays (depositor defined):AID493012, AID493028]. The format is functional.
For experiment [9], the target named is T2, Apoptotic protease-activating factor 1 (Homo sapiens, UniProt O14727).
T2 sequence (O14727 whole entry): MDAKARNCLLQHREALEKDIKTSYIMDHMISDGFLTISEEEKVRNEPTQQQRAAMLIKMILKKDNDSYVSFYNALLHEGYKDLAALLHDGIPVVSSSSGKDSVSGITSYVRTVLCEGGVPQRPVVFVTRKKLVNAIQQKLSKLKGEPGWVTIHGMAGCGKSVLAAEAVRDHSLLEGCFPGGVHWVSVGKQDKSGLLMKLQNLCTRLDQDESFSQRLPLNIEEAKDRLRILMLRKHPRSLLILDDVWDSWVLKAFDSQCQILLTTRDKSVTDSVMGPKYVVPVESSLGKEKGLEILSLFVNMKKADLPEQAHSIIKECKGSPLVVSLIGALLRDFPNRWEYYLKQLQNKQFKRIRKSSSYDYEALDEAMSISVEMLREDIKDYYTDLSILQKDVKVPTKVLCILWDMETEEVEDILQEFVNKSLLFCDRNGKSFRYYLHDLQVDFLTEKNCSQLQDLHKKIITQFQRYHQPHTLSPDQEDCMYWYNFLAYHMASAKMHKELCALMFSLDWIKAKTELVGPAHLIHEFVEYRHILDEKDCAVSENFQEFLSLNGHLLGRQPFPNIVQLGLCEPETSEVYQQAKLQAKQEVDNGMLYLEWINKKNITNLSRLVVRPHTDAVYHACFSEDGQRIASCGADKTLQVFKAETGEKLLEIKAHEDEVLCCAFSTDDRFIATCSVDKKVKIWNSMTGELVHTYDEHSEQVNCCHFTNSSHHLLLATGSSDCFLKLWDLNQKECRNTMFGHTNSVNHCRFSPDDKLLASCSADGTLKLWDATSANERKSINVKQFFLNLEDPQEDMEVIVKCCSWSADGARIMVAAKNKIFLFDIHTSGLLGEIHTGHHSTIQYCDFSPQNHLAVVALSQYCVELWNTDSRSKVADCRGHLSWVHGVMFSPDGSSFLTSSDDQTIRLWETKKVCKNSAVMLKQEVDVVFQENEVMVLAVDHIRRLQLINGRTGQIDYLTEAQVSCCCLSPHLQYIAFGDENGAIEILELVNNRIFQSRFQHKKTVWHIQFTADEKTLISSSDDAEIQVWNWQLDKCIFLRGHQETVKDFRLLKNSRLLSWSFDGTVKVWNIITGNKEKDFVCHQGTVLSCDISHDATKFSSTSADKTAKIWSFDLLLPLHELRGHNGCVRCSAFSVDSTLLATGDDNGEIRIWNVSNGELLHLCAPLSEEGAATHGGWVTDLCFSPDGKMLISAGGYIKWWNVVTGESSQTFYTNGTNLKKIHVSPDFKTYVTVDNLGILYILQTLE
In words: activation of Apaf-1 mediated apoptosis – fluorescent, uHTS hits, dose response (AID 588554). Format: functional.

Experiment [10] concerns the target T3, Carboxy-terminal domain RNA polymerase II polypeptide A small phosphatase 1 (Homo sapiens, UniProt Q9GZU7).
T3 sequence (Q9GZU7 whole entry): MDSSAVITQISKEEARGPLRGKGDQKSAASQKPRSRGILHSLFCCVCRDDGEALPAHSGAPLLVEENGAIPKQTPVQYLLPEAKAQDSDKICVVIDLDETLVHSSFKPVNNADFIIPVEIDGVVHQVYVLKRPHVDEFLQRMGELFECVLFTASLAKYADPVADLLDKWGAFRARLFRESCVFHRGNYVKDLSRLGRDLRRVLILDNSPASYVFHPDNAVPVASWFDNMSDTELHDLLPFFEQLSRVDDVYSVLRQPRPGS
In words: CTDSP1 inhibitors, concentration-response, biochemical, absorbance readout, ultra-high-throughput screen actives (AID 540297). The format is functional.

Experiment [11] concerns the target DNA dC->dU-editing enzyme APOBEC-3A (Homo sapiens, UniProt P31941). In words: A3A deaminase inhibition for selectivity – biochemical, dose response (AID 504722). The format is functional.

Each structure is given as a SMILES string. Calls of active or inactive are those of the source. Where only a bound is given, the exact number is not on record here.

T1 sequence (P63165 whole entry): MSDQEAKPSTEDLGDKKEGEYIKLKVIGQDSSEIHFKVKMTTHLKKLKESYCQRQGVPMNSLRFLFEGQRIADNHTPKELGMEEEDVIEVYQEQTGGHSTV
Induced myeloid leukemia cell differentiation protein Mcl-1, sequence (Q07820 whole entry): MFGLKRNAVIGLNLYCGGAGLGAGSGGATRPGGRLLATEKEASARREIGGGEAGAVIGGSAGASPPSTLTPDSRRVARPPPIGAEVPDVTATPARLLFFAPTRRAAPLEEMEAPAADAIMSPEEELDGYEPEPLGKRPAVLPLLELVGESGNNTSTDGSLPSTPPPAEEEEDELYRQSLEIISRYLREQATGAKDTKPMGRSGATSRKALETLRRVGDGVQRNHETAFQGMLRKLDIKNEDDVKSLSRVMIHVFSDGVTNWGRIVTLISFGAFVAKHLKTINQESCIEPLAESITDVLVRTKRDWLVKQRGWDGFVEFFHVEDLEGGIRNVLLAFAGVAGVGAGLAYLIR
Nonstructural protein 1, sequence (Q194T2 whole entry): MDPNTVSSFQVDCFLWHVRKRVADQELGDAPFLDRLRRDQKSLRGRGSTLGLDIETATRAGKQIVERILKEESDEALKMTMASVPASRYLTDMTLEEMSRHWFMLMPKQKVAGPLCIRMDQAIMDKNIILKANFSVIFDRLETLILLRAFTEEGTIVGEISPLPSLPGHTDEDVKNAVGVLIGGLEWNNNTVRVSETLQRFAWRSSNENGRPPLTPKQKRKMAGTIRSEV
DNA dC->dU-editing enzyme APOBEC-3A, sequence (P31941 whole entry): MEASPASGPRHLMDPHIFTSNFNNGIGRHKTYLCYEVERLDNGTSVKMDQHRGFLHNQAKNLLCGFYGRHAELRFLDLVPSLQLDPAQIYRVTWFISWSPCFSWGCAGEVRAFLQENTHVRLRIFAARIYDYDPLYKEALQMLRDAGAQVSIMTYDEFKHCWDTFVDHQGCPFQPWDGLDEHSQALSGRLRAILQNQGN
RNA-editing ligase 1, mitochondrial, sequence (P86926 whole entry): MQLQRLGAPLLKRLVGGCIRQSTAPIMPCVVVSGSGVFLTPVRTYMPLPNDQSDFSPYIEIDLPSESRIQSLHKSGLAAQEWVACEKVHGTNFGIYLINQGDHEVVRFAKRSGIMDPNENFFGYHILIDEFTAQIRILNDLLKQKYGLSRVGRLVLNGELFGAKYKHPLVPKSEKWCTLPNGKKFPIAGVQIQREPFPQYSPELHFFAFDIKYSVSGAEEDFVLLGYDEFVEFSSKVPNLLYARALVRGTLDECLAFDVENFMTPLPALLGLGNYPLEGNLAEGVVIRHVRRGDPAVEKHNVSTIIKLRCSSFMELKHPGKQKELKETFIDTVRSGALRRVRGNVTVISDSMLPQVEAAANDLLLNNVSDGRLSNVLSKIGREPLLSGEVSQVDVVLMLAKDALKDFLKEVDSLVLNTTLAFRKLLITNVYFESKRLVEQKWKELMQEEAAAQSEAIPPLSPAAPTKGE
Beta-adrenergic receptor kinase 1, sequence (P25098 whole entry): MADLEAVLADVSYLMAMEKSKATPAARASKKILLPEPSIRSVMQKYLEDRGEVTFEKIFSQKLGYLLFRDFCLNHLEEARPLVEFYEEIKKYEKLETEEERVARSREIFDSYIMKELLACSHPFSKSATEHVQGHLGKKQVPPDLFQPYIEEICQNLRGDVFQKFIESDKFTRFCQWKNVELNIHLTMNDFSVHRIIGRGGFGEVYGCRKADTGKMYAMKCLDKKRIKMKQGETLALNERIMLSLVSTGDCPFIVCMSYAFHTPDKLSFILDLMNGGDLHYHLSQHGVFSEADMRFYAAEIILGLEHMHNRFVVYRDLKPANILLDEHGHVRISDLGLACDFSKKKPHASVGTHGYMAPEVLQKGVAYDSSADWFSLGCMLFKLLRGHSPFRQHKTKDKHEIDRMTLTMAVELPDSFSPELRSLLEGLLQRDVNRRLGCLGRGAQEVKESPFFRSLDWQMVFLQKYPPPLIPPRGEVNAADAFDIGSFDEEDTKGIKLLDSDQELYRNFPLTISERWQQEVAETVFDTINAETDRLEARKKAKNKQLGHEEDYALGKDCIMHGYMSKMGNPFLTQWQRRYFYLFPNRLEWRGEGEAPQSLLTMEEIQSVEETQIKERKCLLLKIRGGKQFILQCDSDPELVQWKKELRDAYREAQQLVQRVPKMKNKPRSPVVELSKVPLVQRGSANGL
DNA dC->dU-editing enzyme APOBEC-3G, sequence (Q9HC16 whole entry): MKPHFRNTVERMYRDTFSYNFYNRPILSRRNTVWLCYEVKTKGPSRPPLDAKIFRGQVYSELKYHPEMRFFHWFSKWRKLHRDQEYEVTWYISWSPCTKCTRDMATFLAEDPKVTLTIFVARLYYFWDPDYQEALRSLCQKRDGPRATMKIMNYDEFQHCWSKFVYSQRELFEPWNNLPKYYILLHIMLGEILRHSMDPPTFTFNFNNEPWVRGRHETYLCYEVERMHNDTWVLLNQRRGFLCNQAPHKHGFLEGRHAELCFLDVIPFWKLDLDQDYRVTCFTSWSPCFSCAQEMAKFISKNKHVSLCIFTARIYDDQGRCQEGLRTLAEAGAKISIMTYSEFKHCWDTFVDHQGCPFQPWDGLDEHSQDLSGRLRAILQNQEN

In the case of `CCN(c1ccccc1)S(=O)(=O)c1ccc(C(=O)N(CCCN(C)C)c2nc3c(C)cccc3s2)cc1`, the CC50 is 16 µM (active) with Vero and 10.8 µM (active) with MDCK [3]. Moreover, the IC50 is > 96.6 µM (inactive) in experiment [1], > 100 µM (active) with MDCK [2] and > 100 µM (active) at Nonstructural protein 1.

With `C=C(C)C(=O)Nc1cccc(C2=NOC3(C2)C[C@H](C(N)=O)N(C(=O)/C=C/C)C3)c1` (stereo partly drawn), the EC50 was 21.3 µM (inactive) in [4] and 2.71 µM (active) in [9]. The IC50 in [5] was > 66.6 µM (inactive); in [6], 3.48 µM (active); in [7] it was 1.93 µM (active); in experiment [8] it was 6.14 µM (active); in [10], 1.61 µM (active); in [11], > 100 µM (inactive).

For the origin of these results see ChEMBL document CHEMBL1201862, “PubChem BioAssay data set” (2004).
